According to US6875761B2 (Eisai Co., Ltd., priority 1997, dated 2005):
Where a name gives a salt, the structure may show the parent alone.

What was measured:
[1] = target: T1, serotonin 1A receptor (Rattus norvegicus, UniProt P19327); experiment: Binding test on [3H] 8-hydroxy-dipropylaminotetralin, hippocampus receptor fraction; design: species or system SD rats; details: rat hippocampus receptor fraction, 0.5 nM [3H] 8-OH-DPAT, room temperature 30 min; read-out: 5HT1
T1 construct: To the receptor fraction of the hippocampus were added a test compound and 0.5 nM of [^3H]; 8-hydroxy-dipropylaminotetralin; from tissue; host or cells: rat hippocampus membrane fraction
T1 sequence (P19327 1-422): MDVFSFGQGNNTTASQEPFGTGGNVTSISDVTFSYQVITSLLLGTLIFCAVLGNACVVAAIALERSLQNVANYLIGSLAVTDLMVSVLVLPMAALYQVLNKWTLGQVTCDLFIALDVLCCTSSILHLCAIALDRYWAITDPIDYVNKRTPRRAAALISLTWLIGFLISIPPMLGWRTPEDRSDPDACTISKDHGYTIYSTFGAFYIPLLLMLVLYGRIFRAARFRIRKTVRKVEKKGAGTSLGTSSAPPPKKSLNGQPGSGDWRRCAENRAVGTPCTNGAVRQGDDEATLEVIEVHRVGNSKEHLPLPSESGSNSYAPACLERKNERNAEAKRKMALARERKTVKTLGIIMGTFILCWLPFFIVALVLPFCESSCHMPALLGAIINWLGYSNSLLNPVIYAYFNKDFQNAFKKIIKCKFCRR

[2] = target: T2, serotonin 2 receptor (Rattus norvegicus, UniProt P14842); experiment: Binding test on [3H] ketanserin, cerebral cortex receptor fraction; design: species or system SD rats; details: 0.3 nM [3H] ketanserin, 37° C. 15 min, read-out: 5HT2
T2 construct: To the receptor fraction of the cerebral cortex were added a test compound and 0.3 nM of [^3H] ketanserin; from tissue; host or cells: rat cerebral cortex membrane fraction
T2 sequence (P14842 whole entry): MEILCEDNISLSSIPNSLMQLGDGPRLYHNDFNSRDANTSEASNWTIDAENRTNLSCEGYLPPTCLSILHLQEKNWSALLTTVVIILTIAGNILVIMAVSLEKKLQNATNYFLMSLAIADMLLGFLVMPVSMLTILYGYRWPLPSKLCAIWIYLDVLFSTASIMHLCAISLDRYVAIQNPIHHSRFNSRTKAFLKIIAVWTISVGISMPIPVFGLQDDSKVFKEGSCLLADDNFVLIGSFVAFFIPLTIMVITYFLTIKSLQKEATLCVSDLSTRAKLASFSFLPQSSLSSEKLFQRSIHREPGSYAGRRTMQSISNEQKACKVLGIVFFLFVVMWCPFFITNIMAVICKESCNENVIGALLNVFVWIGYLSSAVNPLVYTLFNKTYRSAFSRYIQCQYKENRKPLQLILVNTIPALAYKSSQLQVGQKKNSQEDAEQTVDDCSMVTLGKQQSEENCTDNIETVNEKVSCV

[3] = target: α1 adrenalin receptor; experiment: Binding test on [3H] prazosin, cerebral cortex receptor fraction; design: species or system SD rats; details: rat cerebral cortex receptor fraction, about 0.2 nM [3H] prazosin, room temperature 60 min; read-out: α 1
Method: As radioisotope-labeled compounds, use was made of the following reagents (mfd. by NEN). • 3) [^3H] […] Prazosin.
Use was made of SD rats aged 6 to 8 weeks.
The rats were sacrificed by dcapitation to extirpate the cerebra.
Each mixture was homogenized by using a Teflon glass homogenizer and centrifuged as 1,000× g for 10 min. The supernatant thus obtained was further centrifuged at 20,000× g for 20 min. […] After centrifuging at 20,000× g for 20 min, the obtained precipitate was further suspended and centrifuged twice each in the same manner. […] This receptor fraction was stored at −80° C. until using.
IC50 was calculated by the probit method, while Ki was determined in accordance with the following formula: Ki=IC50(1+c/Kd) wherein c represents the concentration of the radioisotope-labeled compound, and Kd represents the dissociation constant of the radioisotope-labeled compound with respect to the receptor determined by Scatchard's analysis. (Binding test on [^3H] prazosin)
To the receptor fraction of the cerebral cortex were added a test compound and about 0.2 nM of [^3H] prazosin and the resultant mixture was incubated at room temperature for 60 min. Next, it was filtered through a glass filter with the use of a cell harvester. After washing the glass filter with 50 mM Tris hydrochloride (pH 7.4), the radioactivity of the receptor was measured with a liquid scintillation counter. The binding detected in the presence of 10 μM of phentolamine was referred to as the nonspecific binding.

Row | SMILES | Ki [1] [nM] | Ki [2] [nM] | Ki [3] [nM] | melting point
1 | CCN1CCN(c2nc(-c3ccc(O)cc3)cc3ccccc23)CC1 [Example 7, 1-(4-ethylpiperazin-1-yl)-3-(4-hydroxyphenyl)isoquinoline] | 27.9 | 81.3 | 521 | 204 to 206 °C
2 | CCN1CCN(c2nc(-c3ccc(OCCF)cc3)cc3ccccc23)CC1 [Example 45, 1-(4-Ethylpiperazin-1-Yl)-3-[4-(2-Fluoroethoxy)Phenyl]Isoquinoline Dihydrochloride] | 45 | 1.1 | 1220 | 
3 | CCN1CCN(c2nc(-c3ccc(OCCC#N)cc3)cc3ccccc23)CC1 [Example 52, 3-[4-(2-Cyanoethoxy)Phenyl]-1-(4-Ethylpiperazin-1-Yl)Isoquinoline Hydrochloride] | 23.5 | 0.6 | 555 | 
4 | CCCNC(=O)c1ccc(-c2cc3ccccc3c(N3CCN(CC)CC3)n2)cc1 [Example 63, 1-(4-Ethylpiperazin-1-Yl)-3-(4-N-Propylaminocarbonylphenyl)Isoquinoline Hydrochloride] | 18.1 | 0.84 | 252 | 
5 | CCCC(=O)Nc1ccc(-c2cc3ccccc3c(N3CCN(CC)CC3)n2)cc1 [Example 70, 3-(4-Propylcarbonylaminophenyl]-1-(4-Ethylpiperazin-1-Yl)Isoquinoline Hydrochloride] | 23.3 | 5.5 | 1260 | 
6 | CCCCS(=O)(=O)Nc1ccc(-c2cc3ccccc3c(N3CCN(CC)CC3)n2)cc1 [Example 73, 3-(4-Butylsulfonylaminophenyl)-1-(4-Ethylpiperazin-1-Yl)Isoquinoline Hydrochloride] | 13 | 3.3 | 699 | 
7 | CCN1CCN(c2nc(-c3ccccn3)cc3ccccc23)CC1 [Example 123, 1-(4-Ethylpiperazin-1-yl)-3-(2-Pyridyl)Isoquinoline Dihydrochloride] | 34 | 29.1 | 553 | 
8 | CCN1CCN(c2nc(-c3ccc(OCCOC)nc3)cc3ccccc23)CC1 [Example 126, 1-(1-Ethylpiperazin-4-yl)-3-[2-(2-Methoxyethoxy)Pyridin-5-yl]Isoquinoline] | 26.4 | 5.7 | 382 | 
9 | CCN1CCN(c2nc(-c3ccc(CCCOC)nc3)cc3ccccc23)CC1 [Example 139, 1-(1-Ethylpiperazin-4-yl)-3-[2-(3-Methoxypropyl)Pyridin-5-yl]Isoquinoline Oxalate] | 2.7 | 5.1 | 374 | 
10 | CCN1CCN(c2nc(-c3ccc(N4CCOCC4)cc3)cc3ccccc23)CC1 [Example 160, 3-[4-(4-morpholinyl)phenyl]-1-(4-ethylpiperazin-1-yl)isoquinoline dihydrochloride] | 22.2 | 0.7 | 536 | 
11 | CCN1CCN(c2nc(-c3cnc(N4CCOCC4)s3)cc3ccccc23)CC1 [Example 173, 1-(1-ethylpiperazin-4-yl)-3-[2-(4-morpholinyl)-5-thiazolyl]isoquinoline dihydrochloride] | 3.9 | 4.8 | 284 | 
12 | CCN1CCN(c2nc(C#Cc3ccccn3)cc3ccccc23)CC1 [Example 179, 1-(1-Ethylpiperazin-4-Yl)-3-(2-Pyridyl)Ethynylisoquinoline Oxalate] | 5.3 | 0.4 | 208 | 
13 | CCN1CCN(c2nc(C#CCc3ccccc3)cc3ccccc23)CC1 [Example 181, 1-(1-Ethylpiperazin-4-Yl)-3-(3-Phenyl-1-Propynyl)Isoquinoline Oxalate] | 17.9 | 6.7 | 920 | 
14 | CCN1CCN(c2nc(C#Cc3ccc(OCCO)cc3)cc3ccccc23)CC1 [Example 183, 1-(1-Ethylpiperazin-4-Yl]-3-[4-(2-Hydroxyethoxy)Phenylethynyl]Isoquinoline Dihydrochloride] | 14.1 | 3.36 | 577 | 
15 | CCN1CCN(c2nc(C#Cc3ccccc3OCCO)cc3ccccc23)CC1 [Example 187, 1-(1-Ethylpiperazin-4-Yl)-3-[2-(2-Hydroxyethoxylphenyl]Ethynylisoquinoline Oxalate] | 9.81 | 2.53 | 969 | 
16 | CCN1CCN(c2nc(/C=C/c3ccccc3S(C)(=O)=O)cc3ccccc23)CC1.Cl [Example 202, 3-[(E)-2-(2-Methylsulfonylphenyl)Ethenyl]-1-(4-Ethylpiperazin-1-Yl)Isoquinoline Hydrochloride] | 14.6 | 2.22 | > 2000 | 146 to 149 °C
17 | CCN1CCN(c2nc(NCc3ccc(OC)cc3)cc3ccccc23)CC1 [Example 220, 1-(1-ethylpiperazin-4-yl)-3-(4-methoxybenzylamino)isoquinoline oxalate] | 0.53 | 2.01 | 3800 | 
18 | CCN1CCN(c2nc(-c3ccc(OCCO)cc3)cc3ccsc23)CC1 [Example 259, 7-(4-ethylpiperazin-1-yl)-5-(4-hydroxyethoxyphenyl)thieno[2,3-c]pyridine Hydrochloride] | 9.26 | 18.9 | 405 | 
19 | CCN1CCN(c2nc(-c3ccc(C(C)O)cc3)cc3sccc23)CC1 (stereo not drawn) [Example 281, 4-(4-ethylpiperazin-1-yl)-6-[4-(1-hydroxyethyl)phenyl]thieno[3,2-c]pyridine oxalate] | 15 | 16.9 | 345 | 
20 | CCN1CCN(c2nc(-c3ccc(CCC(C)O)cc3)cc3ccoc23)CC1 (stereo not drawn) [Example 300, 7-(1-ethylpiperazin-4-yl)-5-[4-(3-hydroxybutyl)phenyl]furo[2,3-c]pyridine dihydrochloride] | 0.49 | 9.06 | > 2000 | 
21 | CCN1CCN(c2nc(-c3ccc(OCCCO)cc3)cc3ccccc23)CC1.Cl.Cl [Example 331, 1-(4-ethylpiperazin-1-yl)-3-[4-(3-hydroxypropoxy)phenyl]isoquinoline dihydrochloride] | 23.6 | 5.9 | 722 | 112 to 113 °C (dec.)
22 | CCN1CCN(c2nc(-c3ccc4c(c3)CC(CO)C4)cc3ccccc23)CC1 (stereo not drawn) [Example 393, 1-(4-Ethylpiperazin-1-yl)-3-(2-Hydroxymethylindan-5-yl)Isoquinoline Dihydrochloride] | 13.1 | 1.8 | 242 | 
23 | CCN1CCN(c2nc(-c3ccc(CCC(C)(C)O)c(F)c3)cc3ccccc23)CC1 [Example 416, 1-(4-ethylpiperazin-1-yl)-3-[4-(3-hydroxy-3-methylbutyl)-3-fluorophenyl]isoquinoline] | 31.2 | 0.7 | 174 | 
